Results on six compounds are retold here after US20020006930A1, “Method for stimulating liver regeneration” (priority 2000, published 2002).

SMILES strings stand for the structures. “Also recorded” adds a separate entry of the source.

Series [1] relates to proliferative factors (PF) in the plasma of PHX rats. Nature of the series: Hepatocyte primary culture bioassay for proliferative factor (PF) production in plasma after 2/3 PHX. Type of series: in vivo, rat. To be noted: for reversal of L-NAME-induced blockade/inhibition: PHX rats given L-NAME plus L-arginine, in vivo. The protocol: The production of proliferative factors (PFs) was determined as previously described (21) . Briefly, PHX or PVL was performed as described above. Four hours after PHX or PVL, the diaphragm was cut and a blood sample drawn ([…] per rat) from the right ventricle of the heart using a 21 G 1.5-inch needle and a 10 ml sterile syringe. In a tissue culture hood, the blood was transferred to a sterile centrifuge tube, centrifuged at 2500 g for 20 minutes, and plasma stored at −20° C. The collagenase perfusion and hepatocyte isolation method was modified from Seglen (22), and has been previously described (21). Male Sprahue-Dawley rats (250 g) were anesthetized using sodium pentobarbital (6.5 mg/100 g, i.p.) and livers were perfused according to Seglen (22). Isolated cells were seeded (1×10^5 cells/ml, 2 ml per well) in six-well culture plates and allowed to attach to the plate overnight at 37° C. The next day, unattached cells were washed out of the wells and the starting viable cell number was counted from three randomly selected wells. Trypsin-EDTA (Gibco, BRL) was used to isolate attached hepatocytes from the plate and the hepatocytes were counted using a hemocytometer (Fisher Scientific). Fresh medium and plasma samples from PHX rats (10% final concentration) were added to the rest of the wells (three wells per sample). The medium, containing plasma, was changed at 24 hours. The attached viable cells were harvested at 48 hours. and the final count of viable hepatocytes was determined. The PF levels were expressed as net cell proliferation (viable cell count per well at 48 hours minus starting cell count per well).
The experiment was aimed to develop and optimize a hepatocyte primary culture bioassay to detect proliferative factors (PF) in the plasma or serum of partial hepatectomized (PHX) rats, which could serve as an index of the initiation of liver regeneration cascade.
The bioassay detects the presence of PF by measuring hepatocyte proliferation through a directly counting cell number increases over the culture period using a hemacytometer. The procedure of liver perfusion and hepatocyte purification was adopted from Seglen (1976 Methods Cell Biol. 13, 29) using Sprague Dawley rats. The purified hepatocytes ([…]) were seeded into 6-well culture plates and allowed to attach to the plate overnight at 37° C. The unattached cells were then washed out and the starting cell count was determined from 3 randomly picked wells in the culture after trypsin digestion. Sera collected from ⅔ PHX rats at 1-6 hours post PHX was added to the culture. With a medium change at 24 hours, the final cell counting was performed at 48 hours. The net cell proliferation was expressed as the difference between the counts at 48 hours and starting at hour (0 hr).
The optimized assay conditions ([…] plating concentration, 10% serum, 48 hr culture) were able to detect an increase of PF in PHX rat serum between 1-4 hours after PHX, with a peak activity at 4 hours (unpooled serum n=5/time point, pooled n=5/point). The assay has a high sensitivity to detect PF in ⅓ PHX rat serum (n=7), which was not detectable using the conventional DNA synthesis method.
(§1) To test the hypotheses, an […] hepatocyte primary culture bioassay was developed to detect PF in the plasma of PHX rats as an index of the initial trigger. The PHX surgery was performed according to the conventional method. Liver weight was also measured from the post PHX recovered rats to directly assess liver regeneration in vivo. The level of flow-dependent factors (e.g. adenosine (Ado), NO) was pharmacologically manipulated to test their roles in triggering the liver regeneration cascade.

The next series has as its system cultured hepatocytes. Nature of the series: Cultured hepatocytes exposed to L-NAME in vitro. To be noted: L-NAME at concentrations estimated to occur in the in vivo experiments. Type of series: cell-based, rat. The source says: To determine whether NO served as a trigger to initiate a further cascade of events or whether it served as a direct proliferating stimulus on hepatocytes, the cultured hepatocytes were exposed to concentrations of L-NAME estimated to occur in the in vivo experiments.

In a further series the test system is c-fos mRNA. Kind of series: Hepatic c-fos mRNA expression after 2/3 PHX (northern blot). Type of series: in vivo, rat. As for the experimental part: Animals were divided into four groups: sham procedures, PHX, PHX+L-NAME (Sigma), a Nos antagonist, and PHX+L-NAME+3morpholinosydnonimine (SIN-1, Alexis Corp.), a NO donor. Animals were anesthetized by sodium pentobarbital (6.5 mg/100 g. i.p; MTC Pharmaceuticals). Anesthesia was maintained using a continuous i.v. infusion (Harvard infusion pump, model 2720) of sodium pentobarbital (1.08 mg/ml saline, 1.0 ml/100 g/hr) via a cannula inserted into the femoral vein (PE50), Intramedic Clay Adams Brand, Becton-Dickinson). All surgical procedures were performed between the 10:00 am and 2:00 pm. Arterial blood pressure was monitored via a cannula (PE50, Intramedic Clay Adams Brand, Becton-Dickson) inserted into the femoral artery. To facilitate breathing a tracheotomy was performed using a polyethylene tube (PE240, Intramedic Clay Adams Brand, Becton-Dickinson) inserted into the trachea. Body temperature was maintained at 37.5±0.5° C. by the use of a rectal thermometer (Hanna Instruments) and a heated surgical table (Harvard Apparatus). Laparotomy was performed and a 24 G cather (Optiva™, Johnson and Johnson Medical Inc.) was inserted into the portal vein. The rat was then allowed to stabilize for 30 minutes.
A 0.5 ml bolus of L-NAME (5.0 mg/kg), or saline was infused intravenously over two minutes. Ten minutes later, PHX (resection of the left lateral and median lobes as described by Higgins and Anderson (20) or gentle manipulation of the liver lobes was performed. Resected lobes were litigated using black braided surgical silk (size 0, Ethicon) and excised. […] Fifteen minutes after PHX, or sham manipulation, the remaining liver was removed, slashed and blotted to remove blood, and immediately frozen on dry ice. Portal venous pressure (PVP) was measured, using an R-611 SensorMedics Dynograph Recorder, immediately before and after PHX.
For additional experiments involving PHX+L-NAME, the surgical procedure was exactly the same at that for the ⅔ PHX described above, except that the remaining liver as removed at 30, 45 or 60 minutes after PHX.
Total RNA was isolated by a method modified from Chirgwin et al. (23). Liver tissue was homogenized (Brinkman, Polytron) in lithium chloride/urea (3M/6M; Sima). The homogenized was centrifuged at 25000 rpm (Brinkman L8-70M Ultracentrifuge) for 20 minutes at 4° C. […] The concentration of the RNA was then determined using a spectrophotometer (Ultrospec2000, Pharamacia Biotech). […] The membranes were prehybridized at 42° C. for 3 hours in prehybridization buffer consisting of 5×SSC, 7% SDS (Sigma), sheared denatured salmon sperm DNA (100 μg/ml, Gibco BRL) and 5×Denhardt's solution (Sigma). c-fos mRNA was detected using a 2.1 kb cDNA probe (kindly provided by Dr. C Steer, university of Minnesota, Minneapolis, Minn.). […]

In series [2] the test system is proliferative factor (PF) activity in blood after PVL. Kind of series: Hepatocyte bioassay for PF activity in blood after selective portal vein branch ligation (PVL). Type of series: in vivo, rat. The source says:
Rats were divided into four groups: sham PVL, PVL, PVL+L-NAME and PVL+L-NAME+SIN-1. Surgical procedures were the same as described for PHX except that liver lobes were not ligated and […]. Rather, the left branch of the portal vein was carefully isolated and […]. The left branch of the portal vein was carefully isolated from the surrounding hepatic artery, hepatic nerves, bile duct and lymphatics. A thread was slipped around the left branch of the portal vein and the animal was allowed to recover for one hour. Following the recovery period, saline or L-NAME was administered as described for the PHX group, and the PVL+L-NAME+SIN-1 group received SIN-1 as indicated above. […] PVP was measured immediately before and after PVL, as described for PHX surgery.
The production of proliferative factors (PFs) was determined as previously described (21) . […] The next day, unattached cells were washed out of the wells and the starting viable cell number was counted from three randomly selected wells. Trypsin-EDTA (Gibco, BRL) was used to isolate attached hepatocytes from the plate and the hepatocytes were counted using a hemocytometer (Fisher Scientific). […] The attached viable cells were harvested at 48 hours. and the final count of viable hepatocytes was determined. The PF levels were expressed as net cell proliferation (viable cell count per well at 48 hours minus starting cell count per well).

For a further series, the system named is two-thirds PHX rats. Nature of the series: Restoration of liver weight and survival after two-thirds PHX. It counts as in vivo, rat. To be noted: for post surgery survival rate: 36-44 hours. As for the experimental part: The extent of liver regeneration can be assessed from a number of parameters, the most direct being the restoration of liver weight following PHX. […] Unfortunately, the liver regeneration studies are made complex by the well known observation that NO synthase blockade can potentiate the toxic reaction to inflammatory conditions. […] This can have been a factor in these studies where 6 of 14 rats died in the high dose group between 36 and 44 hours. These animals had only 18±4.7% regeneration. The ability to inhibit regeneration is compatible with a triggering role for NO.
as §1

On to `Nc1ncnc2c1ncn2[C@@H]1O[C@H](CO)[C@@H](O)[C@H]1O` [Ado, adenosine], for which the “effect on PF generation” value in series [1] (2/3 PHX rats, adenosine level manipulated) is listed as “no significant effects”.

For `COC(=O)[C@@H](N)CCCNC(=N)N[N+](=O)[O-]` [L-NAME, N-nitro-Larginine methyl ester], in the series on cultured hepatocytes, the “direct effect on hepatocyte proliferation in vitro” value is on record as “positive proliferative stimulus”. For the same compound, the “appearance/generation of PF in the plasma” value in series [1] (two-thirds PHX rats, L-NAME i.v. at early time points after PHX, 4 hours peak PF) is on record as “block 4 hours peak PF generation; also recorded: blocked the appearance of PF in the plasma; also recorded: inhibited”. In series [1] (two-thirds PHX rats, i.v., not further inhibited by 5.0 mg/kg), the “dose giving maximum inhibition of PF appearance” value is 2.5 mg/kg. In addition, the “c-fos mRNA expression at 30, 45 and 60 minutes compared to 15 minutes after PHX” value in the series on c-fos mRNA (L-NAME 5.0 mg/kg i.v. prior to PHX) is “no difference in c-fos mRNA expression”. For the same compound, in series [2] (four hours after, L-NAME), the “PF activity in blood” value is reported as “inhibited”. In addition, the “post surgery survival rate” value in the series on two-thirds PHX rats (L-NAME + PHX group (n=14), PHX control 100%) is on record as “about 50%”; with two-thirds PHX rats (L-NAME-no-PHX control group (n=6)), 100%. The “restoration of liver weight (regeneration)” value in the series on two-thirds PHX rats (48 hours post-PHX, low dose of L-NAME) is recorded as “did not significantly inhibit regeneration”. In addition, the rats that died in the series with two-thirds PHX rats (high dose L-NAME group after PHX, between 36 and 44 hours) is on record as 6 of 14. For the same compound, in the series with two-thirds PHX rats (high dose L-NAME group, rats that died between 36 and 44 hours), the “regeneration in animals that died” value is given as 18±4.7%.

As to `N=C(N)NCCC[C@H](N)C(=O)O` [L-arginine], the “reversal of L-NAME-induced blockade/inhibition” value is given as “reversed the L-NAME inhibitory effect” in series [1] and “significantly reversed the inhibition by L-NAME” in series [1] (listed as L-Arginine).

In the case of `N=c1c[n+](N2CCOCC2)[n-]o1` [SIN-1, 3-morpholinosydnonimine], the “reversal of L-NAME inhibition of PF activity” value is reported as “reversed the inhibition” in series [1] (PHX, PF activity in blood four hours after) and “reversed the inhibition” in series [2] (PF activity in blood four hours after).

On to `CC(=O)NC(C(=O)O)C(C)(C)SN=O` (racemic) [SNAP, S-nitroso-N-acetyl-D,L-penacillamine], for which the “c-fos mRNA expression” value with c-fos mRNA (after PHX, SNAP 5 mg/kg) is given as “potentiates”; in the series on c-fos mRNA (sham operated livers, SNAP 5 mg/kg), “no effect”.

`CCCOc1ccccc1-c1nc2nn[nH]c2c(=O)[nH]1` [Zaprinast]: in the series with c-fos mRNA (after ⅔ PHX, Zaprinast 10 and 30 mg/kg), the “c-fos mRNA expression” value is given as “potentiated”.
